Laboratory results taken from patent US8748418B2, “1,4-oxazepines as BACE1 and/or BACE2 inhibitors” (Hoffmann-La Roche Inc., priority 2011, dated 2014).

Experiments:
BACE1 = BACE1 (Homo sapiens (Human), UniProt P56817); assay: Cellular Aβ-lowering assay (Aβ40 ELISA in HEK293 cells expressing human APP695); assay type: cell-based; conditions: HEK293 cells stably transfected with human APP wt (APP695), Aβ40 in supernatant after 18-20 hrs
Method: Cellular Aβ-Lowering Assay:
Human HEK293 cells which are stably transfected with a vector expressing a cDNA of the human APP wt gene (APP695) were used to assess the potency of the compounds in a cellular assay. The cells were seeded in 96-well microtiter plates in cell culture medium (Iscove, plus 10% (v/v) fetal bovine serum, glutamine, penicillin/streptomycin) to about 80% confluence and the compounds were added at a 10× concentration in 1/10 volume of medium without FCS containing 8% DMSO (final concentration of DMSO was kept at 0.8% v/v). After 18-20 hrs incubation at 37° C. and 5% CO2 in a humidified incubator the culture supernatant was harvested for the determination of Aβ40 concentrations. 96 well ELISA plates (e.g., Nunc MaxiSorb) were coated with monoclonal antibody which specifically recognize the C-terminal end of Aβ40 (Brockhaus et al., NeuroReport 9, 1481-1486; 1998). After blocking of non-specific binding sites with e.g. 1% BSA and washing, the culture supernatants were added in suitable dilutions together with a horseradish peroxidase-coupled Aβ detection antibody (e.g., antibody 4G8, Senetek, Maryland Heights, Mo.) and incubated for 5 to 7 hrs. Subsequently the wells of the microtiter plate were washed extensively with Tris-buffered saline containing 0.05% Tween 20 and the assay was developed with tetramethylbenzidine/H2O2 in citric acid buffer. After stopping the reaction with one volume 1NH2SO4 the reaction was measured in an ELISA reader at 450 nm wavelength. The concentrations of Aβ in the culture supernatants were calculated from a standard curve obtained with known amounts of pure Aβ peptide.

BACE2 = BACE2 (Homo sapiens (Human), UniProt Q9Y5Z0); assay: Immunofluorescence Resonance Energy Transfer (FRET) assay for BACE2 inhibition; assay type: biochemical; conditions: TMEM27-based peptide substrate 5 μM, pH 4.5
Chain of BACE2 (Q9Y5Z0 63-473): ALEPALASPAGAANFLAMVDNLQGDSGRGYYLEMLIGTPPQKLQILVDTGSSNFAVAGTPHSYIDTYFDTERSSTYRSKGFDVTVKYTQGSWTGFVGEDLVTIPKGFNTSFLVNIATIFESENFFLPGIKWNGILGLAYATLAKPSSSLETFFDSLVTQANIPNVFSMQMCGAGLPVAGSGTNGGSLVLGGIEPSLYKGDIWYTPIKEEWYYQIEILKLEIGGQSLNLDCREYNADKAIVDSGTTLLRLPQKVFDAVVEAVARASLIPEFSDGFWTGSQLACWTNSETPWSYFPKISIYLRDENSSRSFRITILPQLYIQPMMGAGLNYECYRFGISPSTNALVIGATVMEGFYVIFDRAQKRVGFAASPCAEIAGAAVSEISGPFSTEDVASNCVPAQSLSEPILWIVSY
Method: Immunofluorescence Resonance Energy Transfer (FRET) Assay for BACE2 Inhibition:
BACE2 enzyme ectodomain (derived from plasmid “pET17b-T7-hu proBACE2”) was prepared as described in Ostermann et al., “Crystal Structure of Human BACE2 in Complex with a Hydroxyethylamine Transition-state Inhibitor”, Journal of Molecular Biology 2006, 355, 249-261. The pro-enzyme was stored at 4° C. at a concentration of 70 μg/ml.
The FRET assay was performed essentially as described in Grüninger-Leitch et al., Journal of Biological Chemistry (2002) 277(7) 4687-93 (“Substrate and inhibitor profile of BACE (beta-secretase) and comparison with other mammalian aspartic proteases”). In summary, a peptide is designed that is cleaved by the protease. The peptide is labelled with dabcyl at the N terminus and Lucifer Yellow at the C-terminus, such that for an intact peptide the Lucifer Yellow fluorescence is quenched by the dabcyl. When the peptide is cut by BACE2, the quenching is removed and a fluorescent signal is generated.
The assay was performed as described in Grueninger et al. 2002 at pH 4.5 using a substrate concentration of 5 μM. A FRET peptide based on the TMEM27 sequence was devised. dabcyl-[…]-LucY (SEQ ID NO: 1).
The assay readout is the initial rate of change of fluorescence intensity giving a relative measure of BACE2 activity. Small values correspond to high inhibition and larger values to low inhibition. […] IC50 values were determined using these assay values generated for a range of inhibitor concentrations and the curve fitting software XLfit (IDBS) using the Sigmoidal Dose-Response Model.

Chain of BACE1 (P56817 46-501): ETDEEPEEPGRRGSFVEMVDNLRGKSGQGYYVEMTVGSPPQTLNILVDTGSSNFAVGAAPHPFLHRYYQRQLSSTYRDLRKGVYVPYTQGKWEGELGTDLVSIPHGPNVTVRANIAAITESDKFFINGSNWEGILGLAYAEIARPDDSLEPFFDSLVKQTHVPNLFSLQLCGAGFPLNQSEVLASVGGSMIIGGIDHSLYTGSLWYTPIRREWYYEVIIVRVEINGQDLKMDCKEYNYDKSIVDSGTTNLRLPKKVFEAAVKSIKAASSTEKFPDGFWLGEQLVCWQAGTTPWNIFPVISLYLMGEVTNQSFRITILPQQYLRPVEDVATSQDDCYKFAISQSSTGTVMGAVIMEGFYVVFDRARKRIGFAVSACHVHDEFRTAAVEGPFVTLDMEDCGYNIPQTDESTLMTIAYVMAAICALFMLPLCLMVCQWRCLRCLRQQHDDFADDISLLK

SMILES | IC50 (BACE1) | IC50 (BACE2)
C[C@]1(c2cc(N[C@H]3CCc4cc(Cl)cnc43)ccc2F)N=C(N)COCC1(F)F [Example 8, [3-((R)-3-Amino-6,6-difluoro-5-methyl-2,5,6,7-tetrahydro-[1,4]oxazepin-5-yl)-4-fluoro-phenyl]-((S)-3-chloro-6,7-dihydro-5H-[1]pyrindin-7-yl)-amine] | 90 nM | 30 nM
CC1(C)OCC(N)=N[C@](C)(c2cc(N[C@H]3CCc4cc(C#N)cnc43)c(F)cc2F)C1(F)F [Example 20, (S)-7-[5-((R)-3-Amino-6,6-difluoro-5,7,7-trimethyl-2,5,6,7-tetrahydro-[1,4]oxazepin-5-yl)-2,4-difluoro-phenylamino]-6,7-dihydro-5H-[1]pyrindine-3-carbonitrile] | 1900 nM | 170 nM
CC1(C)OCC(N)=N[C@](C)(c2cc(Nc3ccc(Cl)nc3)ccc2F)C1(F)F [Example 22, (R)-5-[5-(6-Chloro-pyridin-3-ylamino)-2-fluoro-phenyl]-6,6-difluoro-5,7,7-trimethyl-2,5,6,7-tetrahydro-[1,4]oxazepin-3-ylamine] | 370 nM | 1770 nM
C[C@]1(c2cc(Nc3ccc(C#N)cc3)ccc2F)N=C(N)COCC1(F)F [Example 10, 4-[3-((R)-3-Amino-6,6-difluoro-5-methyl-2,5,6,7-tetrahydro-[1,4]oxazepin-5-yl)-4-fluoro-phenylamino]-benzonitrile] | 700 nM | 910 nM
CC1(C)OCC(N)=N[C@](C)(c2cc(Nc3ccc(OCC(F)(F)F)nc3)ccc2F)C1(F)F [Example 28, (R)-6,6-Difluoro-5-{2-fluoro-5-[6-(2,2,2-trifluoro-ethoxy)-pyridin-3-ylamino]-phenyl}-5,7,7-trimethyl-2,5,6,7-tetrahydro-[1,4]oxazepin-3-ylamine] | 12700 nM | 1490 nM
CC1(C)OCC(N)=N[C@](C)(c2cc(NC3COc4cc(Cl)ccc43)ccc2F)C1(F)F (stereo partly drawn) [Example 17, (R)-5-[5-(6-Chloro-2,3-dihydro-benzofuran-3-ylamino)-2-fluoro-phenyl]-6,6-difluoro-5,7,7-trimethyl-2,5,6,7-tetrahydro-[1,4]oxazepin-3-ylamine] | 320 nM | 400 nM
Cc1ccc(Nc2ccc(F)c([C@@]3(C)N=C(N)COC(C)(C)C3(F)F)c2)cn1 [Example 27, (R)-6,6-Difluoro-5-[2-fluoro-5-(6-methyl-pyridin-3-ylamino)-phenyl]-5,7,7-trimethyl-2,5,6,7-tetrahydro-[1,4]oxazepin-3-ylamine] | 5900 nM | 
C[C@]1(c2cc(NC3CCCOC3)ccc2F)N=C(N)COC[C@@H]1F (stereo partly drawn) [Example 4, (5R,6R)-6-Fluoro-5-[2-fluoro-5-(tetrahydro-pyran-3-ylamino)-phenyl]-5-methyl-2,5,6,7-tetrahydro-[1,4]oxazepin-3-ylamine] | 400 nM | 73 nM
CC[C@]1(c2cc(NCc3nn(C(F)F)cc3Cl)ccc2F)N=C(N)COCC1(F)F [Example 7, (R)-5-{5-[(4-Chloro-1-difluoromethyl-1H-pyrazol-3-ylmethyl)-amino]-2-fluoro-phenyl}-5-ethyl-6,6-difluoro-2,5,6,7-tetrahydro-[1,4]oxazepin-3-ylamine] | 170 nM | 310 nM
C[C@]1(c2cc(NC3CCOCC3)ccc2F)N=C(N)COC[C@@H]1F [Example 5, (5R,6R)-6-Fluoro-5-[2-fluoro-5-(tetrahydro-pyran-4-ylamino)-phenyl]-5-methyl-2,5,6,7-tetrahydro-[1,4]oxazepin-3-ylamine] | 2400 nM | 1480 nM
CC1(C)OCC(N)=N[C@](C)(c2cc(Nc3cccnc3)ccc2F)C1(F)F [Example 24, (R)-6,6-Difluoro-5-[2-fluoro-5-(pyridin-3-ylamino)-phenyl]-5,7,7-trimethyl-2,5,6,7-tetrahydro-[1,4]oxazepin-3-ylamine] | 1100 nM | 940 nM
CC1(C)OCC(N)=N[C@](C)(c2cc(N[C@@H]3CCc4cc(C#N)cnc43)ccc2F)C1(F)F [Example 13, (R)-7-[3-((R)-3-Amino-6,6-difluoro-5,7,7-trimethyl-2,5,6,7-tetrahydro-[1,4]oxazepin-5-yl)-4-fluoro-phenylamino]-6,7-dihydro-5H-[1]pyrindine-3-carbonitrile] | 310 nM | 95 nM
CC1(C)OCC(N)=N[C@](C)(c2cc(Nc3ccc(F)cc3)ccc2F)C1(F)F [Example 19, (R)-6,6-Difluoro-5-[2-fluoro-5-(4-fluoro-phenylamino)-phenyl]-5,7,7-trimethyl-2,5,6,7-tetrahydro-[1,4]oxazepin-3-ylamine] | 310 nM | 4160 nM
Cn1ccc(Nc2ccc(F)c([C@@]3(C)N=C(N)COC(C)(C)C3(F)F)c2)n1 [Example 18, (R)-6,6-Difluoro-5-[2-fluoro-5-(1-methyl-1H-pyrazol-3-ylamino)-phenyl]-5,7,7-trimethyl-2,5,6,7-tetrahydro-[1,4]oxazepin-3-ylamine] | 240 nM | 530 nM
CC1(C)OCC(N)=N[C@](C)(c2cc(NC3CCc4cc(Cl)cnc43)ccc2F)C1(F)F (stereo partly drawn) [Example 14, [3-((R)-3-Amino-6,6-difluoro-5,7,7-trimethyl-2,5,6,7-tetrahydro-[1,4]oxazepin-5-yl)-4-fluoro-phenyl]-(3-chloro-6,7-dihydro-5H-[1]pyrindin-7-yl)-amine] | 71 nM | 28 nM
C[C@]1(c2cc(N[C@@H]3CCc4cc(Cl)cnc43)ccc2F)N=C(N)COCC1(F)F [Example 9, [3-((R)-3-Amino-6,6-difluoro-5-methyl-2,5,6,7-tetrahydro-[1,4]oxazepin-5-yl)-4-fluoro-phenyl]-((R)-3-chloro-6,7-dihydro-5H-[1]pyrindin-7-yl)-amine] | 2100 nM | 650 nM
CC1(C)OCC(N)=N[C@](C)(c2cc(N[C@H]3CCc4cc(C#N)cnc43)ccc2F)C1(F)F [Example 12, (S)-7-[3-((R)-3-Amino-6,6-difluoro-5,7,7-trimethyl-2,5,6,7-tetrahydro-[1,4]oxazepin-5-yl)-4-fluoro-phenylamino]-6,7-dihydro-5H-[1]pyrindine-3-carbonitrile] | 120 nM | 5 nM
C[C@]1(c2cc(NC3CCOC3)ccc2F)N=C(N)COC[C@@H]1F (stereo partly drawn) [Example 3, (5R,6R)-6-Fluoro-5-[2-fluoro-5-(tetrahydro-furan-3-ylamino)-phenyl]-5-methyl-2,5,6,7-tetrahydro-[1,4]oxazepin-3-ylamine] | 580 nM | 72 nM
C[C@]1(c2cc(NCc3nn(C(F)F)cc3Cl)ccc2F)N=C(N)COC[C@@H]1F [Example 2, (5R,6R)-5-{5-[(4-Chloro-1-difluoromethyl-1H-pyrazol-3-ylmethyl)-amino]-2-fluoro-phenyl}-6-fluoro-5-methyl-2,5,6,7-tetrahydro-[1,4]oxazepin-3-ylamine] | 40 nM | 35 nM
C[C@]1(c2cc(NCc3nn(C(F)F)cc3Cl)ccc2F)N=C(N)COCC1(F)F [Example 6, (R)-5-{5-[(4-Chloro-1-difluoromethyl-1H-pyrazol-3-ylmethyl)-amino]-2-fluoro-phenyl}-6,6-difluoro-5-methyl-2,5,6,7-tetrahydro-[1,4]oxazepin-3-ylamine] | 30 nM | 11 nM
COc1ccc(Nc2ccc(F)c([C@@]3(C)N=C(N)COC(C)(C)C3(F)F)c2)cn1 [Example 25, (R)-6,6-Difluoro-5-[2-fluoro-5-(6-methoxy-pyridin-3-ylamino)-phenyl]-5,7,7-trimethyl-2,5,6,7-tetrahydro-[1,4]oxazepin-3-ylamine] | 410 nM | 1630 nM
C[C@]1(c2cc(NC3CCc4cc(Cl)cnc43)ccc2F)N=C(N)COC[C@@H]1F (stereo partly drawn) [Example 1, [3-((5R,6R)-3-Amino-6-fluoro-5-methyl-2,5,6,7-tetrahydro-[1,4]oxazepin-5-yl)-4-fluoro-phenyl]-(3-chloro-6,7-dihydro-5H-[1]pyrindin-7-yl)-amine] | 70 nM | 24 nM
